Among the data in patent publication US20250197373A1, “SMALL MOLECULE COMPOUND OR SALT THEREOF OR SOLVATE OF THEM, GUANINE NUCLEOTIDE-BINDING PROTEIN G(Q) SUBUNIT ALPHA (GNAQ) INHIBITOR CONTAINING THE SAME AND METHOD FOR TREATING AND/OR PREVENTING CANCER” (INDUSTRIAL TECHNOLOGY RESEARCH INSTITUTE, priority 2023, published 2025) are IC50 and CC50 values, retold here.

Data set [1] deals with MDA-MB-231-OE-GNAQ (T96S). Briefly: Inhibition of growth of triple-negative breast cancer cells MDA-MB-231-OE-GNAQ (T96S) (PrestoBlue). It is filed as cell-based. As to conditions: Homo sapiens, 168 h, 7 days culture, 2% fetal bovine serum, read-out: Inhibitory activity (evaluated by IC50). The procedure:
Triple-negative breast cancer cells, MDA-MB-231 and MDA-MB-231-OE-GNAQ (T96S) (additionally expressing GNAQ (T96S)) were cultured in L-15 medium and in a temperature-controlled incubator without need of additional offer of 5% carbon dioxide.
1×10^3 of the cells mentioned above were seeded in a 96-well plate, placed in a temperature-controlled incubator and cultured overnight (at least 16 hours).
After overnight incubation, the supernatant was removed. Next, after 200 μL of cell culture medium (containing 2% fetal bovine serum) containing different concentrations of test compound was added to each well of the 96-well plate, the 96-well plate was placed in a 37° C. incubator for 7 days further culture. After that, an additional 30 μL of diluted PrestoBlue™ Cell Viability Reagent (Catalog Number: A13261; Thermo Fisher Scientific) (4 μL stock solution and 26 μL culture medium) was added to each well of the 96-well plate and the reaction was continued for further about 1 hour.
Finally, the fluorescence value at the wavelength of 535/615 nm of each well was read with a plate enzyme immunoassay analyzer, and the inhibitory rate of the compound on triple-negative breast cancer cells were calculated using the following formula.
Moreover, the half maximal inhibitory concentration (IC50) of the compound on the growth of triple-negative breast cancer cells was calculated with the inhibitory rate of compound on triple-negative breast cancer cells at each concentration through the online half maximal inhibitory concentration (IC50) calculation software, IC50 Calculator, provided by AAT Bioquest company on its website (https://www.aatbio.com/tools/ic50-calculator).
Finally, the inhibition of the compound on the growth of triple-negative breast cancer cells was evaluated by the calculated half maximal inhibitory concentration (IC50) of the compound on the growth of triple-negative breast cancer cells.
The inhibition of the compound on the growth of triple-negative breast cancer cells was evaluated by the half maximal inhibitory concentration (IC50) of the compound (one of Compound 1 to Compound 15 prepared above) on the growth of triple-negative breast cancer cells through the human triple-negative breast cancer cell lines MDA-MB-231 and MDA-MB-231-OE-GNAQ (T96S) (additionally expressing GNAQ (T96S)).

Data set [2] can be described thus: Half cytotoxic concentration on normal mammary gland epithelial cells MCF-10A-5E (PrestoBlue). It is filed as cell-based. The note with it: human, MCF-10A-5E normal mammary gland epithelial cells, 5 days culture, 10% horse serum, read-out: Non-toxicity (evaluated by CC50). How it is done: Human normal mammary epithelial cells, MCF-10A-5E cells, were cultured in DMEM/F12K (1:1) medium, wherein Insulin-Transferrin-Selenium (ITS-G) (41400045; Thermo Fisher Scientific) diluted 1,000-fold for use, EGF stock (1 mg/mL) (10605-HNAE; Sino Biological) diluted 2,000-fold for use and Hydrocortisone stock (1 mg/mL) (S1696; Selleck Chemicals) diluted 2,000-fold for use were additionally added to the medium.
5×10^3 of the cells mentioned above were seeded in a 96-well plate and cultured overnight (at least 16 hours) in a carbon dioxide incubator.
After overnight incubation, the supernatant was removed. Next, after 200 μL of cell culture medium (containing 10% horse serum) containing different concentrations of test compound was added to each well of the 96-well plate, the 96-well plate was placed in a 5% carbon dioxide incubator at 37° C. for 5 days further culture. After that, an additional 30 μL of diluted PrestoBlue™ Cell Viability Reagent (Catalog Number: A13261; Thermo Fisher Scientific) (4 μL stock solution and 26 μL culture medium) was added to each well of the 96-well plate and the reaction was continued for further about 1 hour.
Finally, the fluorescence value at the wavelength of 535/615 nm of each well was read with a plate enzyme immunoassay analyzer, and the fatality rate of the compound on normal mammary gland epithelial cells were calculated using the following formula.
Moreover, the half cytotoxic concentration (50% cytotoxic concentration, CC50) of the compound on normal mammary gland epithelial cells was calculated with the fatality rate of compound on normal mammary gland epithelial cells at each concentration through the online half maximal inhibitory concentration (IC50) calculation software, ICso Calculator, provided by AAT Bioquest company on its website (https://www.aatbio.com/tools/ic50-calculator).
Finally, toxicity of the compound on normal mammary gland epithelial cells was evaluated by the calculated half cytotoxic concentration (CC50) of the compound on normal mammary gland epithelial cells.
In addition, the toxicity of the compound on normal mammary gland epithelial cells was evaluated by the half cytotoxic concentration (CC50) of the compound (one of Compound 1 to Compound 15 prepared above) on normal mammary gland epithelial cells through the human normal mammary gland epithelial cell line MCF-T0A-5E.

As to `O=C(Nc1cccc(-c2cccc(-c3ccncc3)n2)c1)Nc1cc(Cl)nc(Cl)c1` [Compound 13], in data set [1], the IC50 was 310 to 2500 nM. In addition, the CC50 at 5 days in data set [2] was above 20000 nM.
Regarding `O=C(Nc1cccc(-c2ccnc(-c3ccc(F)c(F)c3)n2)c1)Nc1cc(Cl)nc(Cl)c1` [Compound 4], the IC50 in data set [1] was in the range of 310 to 2500 nM. Besides, the CC50 at 5 days in data set [2] lay in the range of 5000 to 10000 nM.
As to `FC(F)(F)c1cccc(-c2cccc(-c3ccc(NC(=S)Nc4cc(Cl)nc(Cl)c4)cc3)n2)c1` [Compound 10], the IC50 in data set [1] lay in the range of 310 to 2500 nM. Moreover, the CC50 at 5 days in data set [2] was above 20000 nM.
The like results for `O=C(Nc1ccc(-c2cccc(-c3cccc(C(F)(F)F)c3)n2)cc1)Nc1cc(Cl)nc(Cl)c1` [Compound 9] were, in that order, 310 to 2500 nM and 10000 to 20000 nM.
The like results for `O=C(Nc1ccc(-c2cccc(-c3ccncc3)n2)cc1)Nc1ccc(Cl)c(C(F)(F)F)c1` [Compound 12] were, in that order, 310 to 2500 nM and 10000 to 20000 nM.
As for `O=C(Nc1ccc(-c2nc(-c3ccccc3)ncc2Cl)cc1)Nc1cc(Cl)nc(Cl)c1` [Compound 15], the IC50 in data set [1] was 310 to 2500 nM. Also, in data set [2], the CC50 at 5 days lay in the range of 10000 to 20000 nM.
With `O=C(Nc1ccc(-c2ccnc(-c3cccc(C(F)(F)F)c3)n2)cc1)Nc1cc(Cl)nc(Cl)c1` [Compound 7], the IC50 in data set [1] fell in the range of 310 to 2500 nM. Further, the CC50 at 5 days in data set [2] fell in the range of 10000 to 20000 nM.
The matching figures for `O=C(Nc1cccc(-c2ccnc(-c3cccc(C(F)(F)F)c3)n2)c1)Nc1cc(Cl)nc(Cl)c1` [Compound 2]: 310 to 2500 nM and 10000 to 20000 nM.
The matching figures for `N#Cc1cccc(-c2nccc(-c3cccc(NC(=O)Nc4cc(Cl)nc(Cl)c4)c3)n2)c1` [Compound 3]: 310 to 2500 nM and 10000 to 20000 nM.
The matching figures for `N#Cc1cccc(-c2cccc(-c3ccc(NC(=S)Nc4cc(Cl)nc(Cl)c4)cc3)n2)c1` [Compound 11]: 310 to 2500 nM and above 20000 nM.
In the case of `O=C(Nc1cccc(-c2ccnc(-c3cccc(C(F)(F)F)c3)n2)c1)c1cc(Cl)nc(Cl)c1` [Compound 5], the IC50 in data set [1] lay in the range of 310 to 2500 nM. Besides, the CC50 at 5 days in data set [2] is above 20000 nM.
On to `O=C(Nc1ccc(-c2ccnc(-c3cccc(C(F)(F)F)c3)n2)cc1)Nc1ccc(Cl)c(C(F)(F)F)c1` [Compound 8], for which the IC50 in data set [1] was 310 to 2500 nM. Moreover, in data set [2], the CC50 at 5 days fell in the range of 10000 to 20000 nM.
The matching figures for `O=C(Nc1cccc(-c2cc(-c3cccc(C(F)(F)F)c3)ncn2)c1)Nc1cc(Cl)nc(Cl)c1` [Compound 14]: 310 to 2500 nM and 10000 to 20000 nM.
The matching figures for `O=C(Nc1cccc(-c2ccnc(-c3ccnc(Cl)c3)n2)c1)Nc1cc(Cl)nc(Cl)c1` [Compound 1]: 310 to 2500 nM and above 20000 nM.
With `O=C(Nc1ccc(-c2ccnc(-c3ccncc3)n2)cc1)Nc1ccc(Cl)c(C(F)(F)F)c1` [Compound 6], in data set [1], the IC50 was in the range of 2500 to 5000 nM. The half-maximal cytotoxic concentration (CC50) at 5 days in data set [2] was in the range of 10000 to 20000 nM.
